Values quoted from earlier work, collected in patent publication US20210198629A1, “COMPOSITIONS AND METHODS FOR INCREASING BEIGING OF WHITE ADIPOSE TISSUE” (University of Georgia Research Foundation, Inc., priority 2018, published 2021).
Like-named read-outs stand apart in the source and are kept apart here.

What was measured:
[1] = test system: EGFR mutant PC9 cancer cells; conditions: cited from earlier work
[2] = test system: Ucp1; conditions: cited from earlier work
[3] = molecular target: T1, BRD9 (Homo sapiens, UniProt Q9H8M2); conditions: cited from earlier work
T1 sequence (Q9H8M2 1-597): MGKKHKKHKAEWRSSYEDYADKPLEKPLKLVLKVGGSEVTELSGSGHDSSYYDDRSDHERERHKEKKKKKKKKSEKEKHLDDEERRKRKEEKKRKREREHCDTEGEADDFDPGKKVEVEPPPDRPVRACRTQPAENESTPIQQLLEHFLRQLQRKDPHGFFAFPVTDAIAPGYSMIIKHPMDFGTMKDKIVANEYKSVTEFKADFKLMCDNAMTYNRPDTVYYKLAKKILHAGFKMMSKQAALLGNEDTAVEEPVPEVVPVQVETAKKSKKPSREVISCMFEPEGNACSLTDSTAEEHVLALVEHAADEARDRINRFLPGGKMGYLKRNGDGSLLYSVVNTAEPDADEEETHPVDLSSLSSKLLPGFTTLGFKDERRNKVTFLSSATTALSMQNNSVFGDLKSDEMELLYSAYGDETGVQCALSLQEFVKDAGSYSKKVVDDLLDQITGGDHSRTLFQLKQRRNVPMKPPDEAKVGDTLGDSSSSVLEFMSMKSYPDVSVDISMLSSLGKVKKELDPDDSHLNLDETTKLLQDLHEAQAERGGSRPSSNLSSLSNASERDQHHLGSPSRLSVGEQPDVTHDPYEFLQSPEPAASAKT

[4] = test system: rhabdoid tumor cells; conditions: combinatorial treatment with cytostatic compounds (e.g., cisplatin); cited from earlier work

For `C/C=C/Cn1cc(-c2cc(OC)c(C(=O)N3CCOCC3)cc2OC)c2cc[nH]c2c1=O` [GNE-375], the drug resistance development ([1]; EGFR mutant PC9 cancer cells) is given as “prevent the drug resistance development”, the cell viability ([1]; PC9 study) is given as “little effects” and the “expression of ALDH1A1” value ([1]; PC9 study) is given as “decreases”. The global gene expression ([1]; PC9 study) was “little effects”.

For `COc1ccc(Br)cc1/C=C1\SC(=O)N(Cc2ccc(C)cc2)C1=O` [GQ-16], the “WAT beiging, increase of Ucp1” value ([2]; oral administration 40 mg/kg/d, for 14 days) is listed as 5 fold.

In the case of `CCn1cc(-c2cccc(C(F)(F)F)c2)c2sc(C(=N)NC3CCS(=O)(=O)CC3)cc2c1=O` [I-BRD9, N′-(1,1-dioxothian-4-yl)-5-ethyl-4-oxo-7-[3-(trifluoromethyl)phenyl]thieno[3,2-c]pyridine-2-carboximidamide], the “selectivity over the BET family” value ([3]; BRD9 vs BET family) is given as greater than 700 fold, the “selectivity over the highly homologous BRD7” value ([3]; BRD9 vs BRD7) is given as 200 fold and the “proliferation of rhabdoid tumor cells” value [4] is given as “synergistically inhibit”.

For `C=C(c1ccc(C(=O)O)cc1)c1cc2c(cc1C)C(C)(C)CCC2(C)C` [Bexarotene], the “WAT beiging, increase of Ucp1” value ([2]; oral administration 50 mg/kg/d, for 28 days, only in subcutaneous WATs) is given as 1.5 fold.

For `CCc1cc2c(c(CC)n1)CCC(=O)N2Cc1ccc(-c2ccccc2-c2nn[nH]n2)cc1` [ZD7155], the “WAT beiging, increase of Ucp1” value ([2]; intraperitoneal injection 1 mg/kg/d for 14 days) is listed as “less than 2 fold”.

For `CC[C@H](CO)Nc1nc(NCc2ccccc2)c2ncn(C(C)C)c2n1` [Roscovitine], the WAT beiging ([2]; intraperitoneal injection 50 mg/kg/d for 42 days) is given as “induced WAT beiging”.
